Values belong to the compound of their own block, whether it stands above or below them. *1 amine or outer side, *2 acyl side, *3 side chain or, on linkers, in order; H or OH if unused. Where a SMILES comes first, the peptide text is derived from it. Side-chain parts run from the residue outwards. [ ]: non-standard residue; d: D form. The star is where a group is joined. C18 diacid = O=C(O)CCCCCCCCCCCCCCCCC(=O)*; γGlu = O=C(O)[C@H](CCC(=O)[*:2])N[*:1]; C12 diacid = O=C(O)CCCCCCCCCCC(=O)*; NMeI = CC[C@H](C)[C@H](NC)C(=O)O; αMeL = CC(C)C[C@](C)(N)C(=O)O; Api = NC1(C(=O)O)CCNCC1; Pentanoyl = CCCCC(=O)*; AEEA = NCCOCCOCC(=O)O; Aib = CC(C)(N)C(=O)O
Key:
[1] = molecular target: T1, CFR1R receptor (Homo sapiens, UniProt P34998); experiment: Activity at anti-target CFR1R receptor, cAMP assay in CRF1R-overexpression CHO-K1 cells; type: cell-based; conditions: 100% = Sauvagine at 100 nM; for EC50: cAMP
T1 construct: host or cells: CHO-K1 (clone 2)
T1 sequence (P34998 24-415): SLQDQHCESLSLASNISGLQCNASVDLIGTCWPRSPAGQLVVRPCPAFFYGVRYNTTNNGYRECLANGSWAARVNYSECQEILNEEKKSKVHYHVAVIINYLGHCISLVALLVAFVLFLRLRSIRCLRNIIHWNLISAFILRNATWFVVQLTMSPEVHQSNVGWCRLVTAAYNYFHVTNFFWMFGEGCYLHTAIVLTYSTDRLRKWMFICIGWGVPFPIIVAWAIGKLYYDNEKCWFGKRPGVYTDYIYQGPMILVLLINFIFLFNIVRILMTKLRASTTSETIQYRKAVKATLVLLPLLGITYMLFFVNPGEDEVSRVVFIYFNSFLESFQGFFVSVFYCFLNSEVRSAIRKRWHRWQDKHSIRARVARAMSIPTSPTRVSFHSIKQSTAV
Outline: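 cAMP readout in CRF1R-overexpressing CHO-K1 cells (clone 2), run as for the TeloHAEC assay at 4000 cells/well final. Cells came from cryopreserved banks. Sauvagine at 100 nM defined 100% activation.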

[2] = molecular target: T2, human CRF2a receptor (Homo sapiens, UniProt Q13324); experiment: Activity at human CRF2a receptor, cAMP functional assay in TeloHEAC cells; type: cell-based; conditions: TeloHEAC cells stably expressing human CRF2a receptor, relative to urocortin 2 (100 nM = 100%)
T2 construct: expressed in transfected cells; host or cells: TeloHEAC cells
T2 sequence (Q13324 1-411): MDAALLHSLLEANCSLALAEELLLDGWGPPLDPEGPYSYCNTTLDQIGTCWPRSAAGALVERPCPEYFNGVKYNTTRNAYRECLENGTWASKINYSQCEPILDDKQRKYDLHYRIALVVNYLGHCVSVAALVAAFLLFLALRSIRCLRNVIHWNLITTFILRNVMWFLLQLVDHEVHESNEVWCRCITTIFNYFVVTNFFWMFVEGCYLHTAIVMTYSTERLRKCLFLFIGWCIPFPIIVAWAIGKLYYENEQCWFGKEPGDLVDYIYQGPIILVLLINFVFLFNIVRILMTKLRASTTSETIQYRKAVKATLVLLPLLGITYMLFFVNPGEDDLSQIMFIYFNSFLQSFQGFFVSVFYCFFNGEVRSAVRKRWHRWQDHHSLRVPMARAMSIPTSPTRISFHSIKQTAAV
Outline: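 TeloHEAC cells stably expressing human CRF2a (10000 cells/well, suspended in HBSS/20 mM HEPES with 2 mM IBMX) were exposed to compounds for 30 min at 37 °C. cAMP was read as the 665/620 nm fluorescence ratio after 1 h at room temperature. EC50 was derived relative to 100 nM urocortin 2, set as 100%.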

Compound: CCCCC(=O)N[C@H](C(=O)N[C@@H](CC(C)C)C(=O)N[C@@H](CO)C(=O)N[C@@H](CC(C)C)C(=O)N[C@@H](CC(=O)O)C(=O)N[C@@H](C(=O)N1CCC[C@H]1C(=O)N[C@H](C(=O)N[C@@H](CCCCN)C(=O)N[C@@](C)(CC(C)C)C(=O)N[C@@H](CCCCNC(=O)COCCOCCNC(=O)COCCOCCNC(=O)CC[C@H](NC(=O)CCCCCCCCCCCCCCCCC(=O)O)C(=O)O)C(=O)N[C@@H](CCCCN)C(=O)N[C@H](C(=O)N[C@@H](CC(C)C)C(=O)N[C@@H](CC(C)C)C(=O)N[C@@H](CCC(=O)O)C(=O)N[C@@H](CCC(N)=O)C(=O)N[C@@H](CCC(=O)O)C(=O)N[C@@H](CCCCN)C(=O)N[C@@H](CCC(N)=O)C(=O)N[C@@H](CCCCN)C(=O)N[C@@H](CCCCN)C(=O)N[C@@H](CCC(N)=O)C(=O)N[C@@H](CCCNC(=N)N)C(=O)N[C@@H](CCC(=O)O)C(=O)N[C@@H](CCC(N)=O)C(=O)N[C@@H](C)C(=O)N[C@@H](CCC(=O)O)C(=O)N[C@H](C(=O)N[C@@H](CC(N)=O)C(=O)NC(C)(C)C(=O)N[C@@H](CCC(N)=O)C(=O)N[C@H](C(=O)N[C@@H](CC(C)C)C(=O)N[C@@H](C)C(=O)N[C@@H](CCC(N)=O)C(=O)N[C@H](C(N)=O)C(C)C)[C@@H](C)CC)[C@@H](C)O)[C@@H](C)CC)[C@@H](C)CC)C(C)C)C(C)C [compound 123] (Pentanoyl-VLSLD[dV]PIK[αMeL]K([AEEA-AEEA-γGlu-C18 diacid])KILLEQEKQKKQREQAETN[Aib]QILAQV-NH2)
Emax (% I) [1]: 14 % I
EC50 [1]: > 250 nM
EC50 [2]: 0.7 nM

Compound: CC[C@H](C)[C@H](NC)C(=O)N[C@H](C(=O)N[C@@H](CC(C)C)C(=O)N[C@@H](CO)C(=O)N[C@@H](CC(C)C)C(=O)N[C@@H](CC(=O)O)C(=O)N[C@@H](C(=O)N1CCC[C@H]1C(=O)N[C@H](C(=O)N[C@@H](CCCCN)C(=O)N[C@@](C)(CC(C)C)C(=O)N[C@@H](CCCCNC(=O)COCCOCCNC(=O)COCCOCCNC(=O)CC[C@H](NC(=O)CCCCCCCCCCCCCCCCC(=O)O)C(=O)O)C(=O)N[C@@H](CCCCN)C(=O)N[C@H](C(=O)N[C@@H](CC(C)C)C(=O)N[C@@H](CC(C)C)C(=O)N[C@@H](CCC(=O)O)C(=O)N[C@@H](CCC(N)=O)C(=O)N[C@@H](CCC(=O)O)C(=O)N[C@@H](CCCCN)C(=O)N[C@@H](CCC(N)=O)C(=O)N[C@@H](CCCCN)C(=O)N[C@@H](CCCCN)C(=O)N[C@@H](CCC(N)=O)C(=O)N[C@@H](CCCNC(=N)N)C(=O)N[C@@H](CCC(=O)O)C(=O)N[C@@H](CCC(N)=O)C(=O)N[C@@H](C)C(=O)N[C@@H](CCC(=O)O)C(=O)N[C@H](C(=O)N[C@@H](CC(N)=O)C(=O)NC(C)(C)C(=O)N[C@@H](CCC(N)=O)C(=O)N[C@H](C(=O)N[C@@H](CC(C)C)C(=O)N[C@@H](C)C(=O)N[C@@H](CCC(N)=O)C(=O)N[C@H](C(N)=O)C(C)C)[C@@H](C)CC)[C@@H](C)O)[C@@H](C)CC)[C@@H](C)CC)C(C)C)C(C)C [compound 119] (H-[NMeI]VLSLD[dV]PIK[αMeL]K([AEEA-AEEA-γGlu-C18 diacid])KILLEQEKQKKQREQAETN[Aib]QILAQV-NH2)
Emax (% I) [1]: 5 % I
EC50 [1]: > 250 nM
EC50 [2]: 1.62 nM

Continued, values first:

Emax (% I) [1]: 3 % I
EC50 [1]: > 250 nM
EC50 [2]: 4.25 nM
Compound: CC[C@H](C)[C@H](NC(C)=O)C(=O)N[C@H](C(=O)N[C@@H](CC(C)C)C(=O)N[C@@H](CO)C(=O)N[C@@H](CC(C)C)C(=O)N[C@@H](CC(=O)O)C(=O)N[C@@H](C(=O)N1CCC[C@H]1C(=O)N[C@H](C(=O)N[C@@H](CCCCN)C(=O)N[C@@H](CC(C)C)C(=O)N[C@@H](CCCCNC(=O)CC[C@H](NC(=O)CCCCCCCCCCC(=O)O)C(=O)O)C(=O)N[C@@H](CCCCN)C(=O)N[C@H](C(=O)N[C@@H](CC(C)C)C(=O)N[C@@H](CC(C)C)C(=O)N[C@@H](CCC(=O)O)C(=O)N[C@@H](CCC(N)=O)C(=O)N[C@@H](CCC(=O)O)C(=O)N[C@@H](CCCCN)C(=O)N[C@@H](CCC(N)=O)C(=O)N[C@@H](CCCCN)C(=O)NC(C)(C)C(=O)N[C@@H](CCC(N)=O)C(=O)N[C@@H](CCCNC(=N)N)C(=O)N[C@@H](CCC(=O)O)C(=O)N[C@@H](CCC(N)=O)C(=O)N[C@@H](C)C(=O)N[C@@H](CCC(=O)O)C(=O)N[C@H](C(=O)N[C@@H](CC(N)=O)C(=O)NC1(C(=O)N[C@@H](CCC(N)=O)C(=O)N[C@H](C(=O)N[C@@H](CC(C)C)C(=O)N[C@@H](C)C(=O)N[C@@H](CCC(N)=O)C(=O)N[C@H](C(N)=O)C(C)C)[C@@H](C)CC)CCNCC1)[C@@H](C)O)[C@@H](C)CC)[C@@H](C)CC)C(C)C)C(C)C [compound 184] (Ac-IVLSLD[dV]PIKLK([γGlu-C12 diacid])KILLEQEKQK[Aib]QREQAETN[Api]QILAQV-NH2)

Emax (% I) [1]: 19 % I
EC50 [1]: > 250 nM
EC50 [2]: 0.11 nM
Compound: CC[C@H](C)[C@H](NC)C(=O)N[C@H](C(=O)N[C@@H](CC(C)C)C(=O)N[C@@H](CO)C(=O)N[C@@H](CC(C)C)C(=O)N[C@@H](CC(=O)O)C(=O)N[C@@H](C(=O)N1CCC[C@H]1C(=O)N[C@H](C(=O)NCC(=O)N[C@@H](CC(C)C)C(=O)N[C@@H](CCCCNC(=O)CC[C@H](NC(=O)CCCCCCCCCCCCCCCCC(=O)O)C(=O)O)C(=O)N[C@@H](CCCCN)C(=O)N[C@H](C(=O)N[C@@H](CC(C)C)C(=O)N[C@@H](CC(C)C)C(=O)N[C@@H](CCC(=O)O)C(=O)N[C@@H](CCC(N)=O)C(=O)N[C@@H](CCC(=O)O)C(=O)N[C@@H](CCCCN)C(=O)N[C@@H](CCC(N)=O)C(=O)N[C@@H](CCCCN)C(=O)N[C@@H](CCCCN)C(=O)N[C@@H](CCC(N)=O)C(=O)N[C@@H](CCCNC(=N)N)C(=O)N[C@@H](CCC(=O)O)C(=O)N[C@@H](CCC(N)=O)C(=O)N[C@@H](C)C(=O)N[C@@H](CCC(=O)O)C(=O)N[C@H](C(=O)N[C@@H](CC(N)=O)C(=O)NC(C)(C)C(=O)N[C@@H](CCC(N)=O)C(=O)N[C@H](C(=O)N[C@@H](CC(C)C)C(=O)N[C@@H](C)C(=O)N[C@@H](CCC(N)=O)C(=O)N[C@H](C(N)=O)C(C)C)[C@@H](C)CC)[C@@H](C)O)[C@@H](C)CC)[C@@H](C)CC)C(C)C)C(C)C [compound 192] (H-[NMeI]VLSLD[dV]PIGLK([γGlu-C18 diacid])KILLEQEKQKKQREQAETN[Aib]QILAQV-NH2)

Emax (% I) [1]: 1 % I
EC50 [1]: > 250 nM
EC50 [2]: 1.88 nM
Compound: CC[C@H](C)[C@H](NC(C)=O)C(=O)N[C@H](C(=O)N[C@@H](CC(C)C)C(=O)N[C@@H](CO)C(=O)N[C@@H](CC(C)C)C(=O)N[C@@H](CC(=O)O)C(=O)N[C@@H](C(=O)N1CCC[C@H]1C(=O)N[C@H](C(=O)N[C@@H](CCCCN)C(=O)N[C@@H](CC(C)C)C(=O)N[C@@H](CCCCNC(=O)CC[C@H](NC(=O)CCCCCCCCCCC(=O)O)C(=O)O)C(=O)N[C@@H](CCCCN)C(=O)N[C@H](C(=O)N[C@@H](CC(C)C)C(=O)N[C@@H](CC(C)C)C(=O)N[C@@H](CCC(=O)O)C(=O)N[C@@H](CCC(N)=O)C(=O)N[C@@H](CCC(=O)O)C(=O)N[C@@H](CCCCN)C(=O)N[C@@H](CCC(N)=O)C(=O)N[C@@H](CCCCN)C(=O)N[C@@H](CCCCN)C(=O)N[C@@H](CCC(N)=O)C(=O)N[C@@H](CCCNC(=N)N)C(=O)N[C@@H](CCC(=O)O)C(=O)N[C@@H](CCC(N)=O)C(=O)N[C@@H](C)C(=O)N[C@@H](CCC(=O)O)C(=O)N[C@H](C(=O)N[C@@H](CC(N)=O)C(=O)NC(C)(C)C(=O)N[C@@H](CCC(N)=O)C(=O)N[C@H](C(=O)N[C@@H](CC(C)C)C(=O)N[C@@H](C)C(=O)N[C@@H](CCC(N)=O)C(=O)N[C@H](C(N)=O)C(C)C)[C@@H](C)CC)[C@@H](C)O)[C@@H](C)CC)[C@@H](C)CC)C(C)C)C(C)C [compound 182] (Ac-IVLSLD[dV]PIKLK([γGlu-C12 diacid])KILLEQEKQKKQREQAETN[Aib]QILAQV-NH2)
